Measured values published in publication PMC11111895, “Identification of a dCache-type chemoreceptor in Campylobacter jejuni that specifically mediates chemotaxis towards methyl pyruvate” (Frontiers in Microbiology, 2024).

Experiments:
Tlp11-LBD T320A = test: MST of Tlp11-LBD mutant T320A; type: binding, C. jejuni ATCC 33560; conditions: max ligand 2.5 mM
Method: The His-tag dye (MO-L018 RED-tris-NTA, NanoTemper, Germany) was adjusted to a final concentration of 25 nM and used to label the purified protein with a His-tag. The compound was diluted to a series of concentrations in phosphate-buffered saline ([Duan et al., 2023]) with 0.05% Tween 20 (PBS-T) buffer and mixed in a ratio of 1:1 with protein. The mixtures were loaded into capillaries (Monolith™ Series capillaries, NanoTemper) by means of capillary action. Thermophoresis was measured using a Monolith™ NT.115 (NanoTemper) instrument, with 40% excitation and 40% MST power configuration. The time-traces of changes in fluorescence, which reflected the thermophoretic movement of labeled protein affected by different concentrations of compound were recorded, and the dose–response curves were fitted with the ‘temperature jump and thermophoresis’ mode. Data analysis was performed using MO. Affinity Analysis version 2.3 (NanoTemper) and Prism version 8.0.2 (GraphPad Software, United States).
In order to confirm the contribution of L264, N268, I276, Y291, V318, and T320 to the binding to methyl pyruvate, we generated Tlp11-LBD proteins with an alanine point mutation at individual residues, to obtain the mutant proteins L264A, N268A, I276A, Y291A, V318A, and T320A, and then analyzed the binding affinities of methyl pyruvate to these mutants using MST. […]

C. jejuni ATCC 33560 = test: Growth curves in Minimal Essential Medium; type: cell-based, Campylobacter jejuni; conditions: Minimal Essential Medium with fetal bovine serum, shaking; methyl pyruvate at concentrations above 1 mM
Method: The C. jejuni ATCC 33560, C. jejuni WT NCTC 11168 and 11168ΩTlp11 cells were grown on a MH agar plate overnight, at 37°C, under microaerobic conditions. The colonies were suspended in PBS ([Duan et al., 2023]), pH 7.2, inoculated into Minimal Essential Medium broth (Life Technologies) containing 10% fetal bovine serum to an initial OD600 of 0.01, and grown at 37°C, 100 rpm, under microaerobic conditions. When required, Minimal Essential Medium was supplemented with different concentrations of methyl pyruvate or pyruvate (both from Macklin, China).

For `COC(=O)C(C)=O` [methyl pyruvate, Methyl pyruvate], the “Kd (binding curve fit)” value (Tlp11-LBD T320A) was “unable to obtain fitted Kd values” and the “effect on growth of C. jejuni ATCC 33560” value (C. jejuni ATCC 33560) was “significantly promoted the growth”.
